Results as given in the NIST ThermoML archive (doi:10.1016/j.tca.2005.10.007).
± gives the expanded uncertainty stated by the source.

Assay: xn = mol fraction of the nth substance listed
Details: 101 kPa, Liquid, Vibrating tube method

CC(O)CN (configuration not stated) [1-amino-2-propanol] + O
mass density [kg/m3]
Details	283.15 K	288.15 K	293.15 K	298.15 K	303.15 K	308.15 K	313.15 K	318.15 K
x2 = 0.0438	970.22 ± 0.47	966.31 ± 0.47	962.38 ± 0.47	958.41 ± 0.47	954.42 ± 0.47	950.39 ± 0.46	946.34 ± 0.46	942.26 ± 0.46
x2 = 0.0801	971.77 ± 0.46	967.87 ± 0.45	963.94 ± 0.45	959.99 ± 0.45	956.01 ± 0.45	952 ± 0.45	947.96 ± 0.45	943.89 ± 0.45
x2 = 0.1269	974.08 ± 0.43	970.22 ± 0.43	966.31 ± 0.43	962.38 ± 0.43	958.41 ± 0.43	954.42 ± 0.43	950.39 ± 0.43	946.33 ± 0.42
x2 = 0.1584	975.52 ± 0.42	971.66 ± 0.42	967.77 ± 0.42	963.84 ± 0.42	959.89 ± 0.41	955.9 ± 0.41	951.88 ± 0.41	947.83 ± 0.41
x2 = 0.2003	977.67 ± 0.4	973.82 ± 0.4	969.94 ± 0.4	966.03 ± 0.4	962.09 ± 0.4	958.11 ± 0.39	954.1 ± 0.39	950.06 ± 0.39
x2 = 0.2999	983.38 ± 0.35	979.58 ± 0.35	975.73 ± 0.35	971.85 ± 0.35	967.94 ± 0.35	963.99 ± 0.35	960 ± 0.35	955.98 ± 0.35
x2 = 0.3498	986.51 ± 0.33	982.72 ± 0.33	978.89 ± 0.33	975.02 ± 0.33	971.12 ± 0.33	967.18 ± 0.33	963.21 ± 0.32	959.19 ± 0.32
x2 = 0.3999	989.63 ± 0.31	985.84 ± 0.31	982.02 ± 0.31	978.16 ± 0.3	974.27 ± 0.3	970.34 ± 0.3	966.36 ± 0.3	962.35 ± 0.3
x2 = 0.4499	993.04 ± 0.28	989.26 ± 0.28	985.45 ± 0.28	981.59 ± 0.28	977.71 ± 0.28	973.78 ± 0.28	969.81 ± 0.28	965.8 ± 0.28
x2 = 0.4968	996.4 ± 0.26	992.66 ± 0.26	988.85 ± 0.26	985 ± 0.26	981.12 ± 0.26	977.19 ± 0.26	973.23 ± 0.26	969.22 ± 0.26
x2 = 0.5122	997.62 ± 0.25	993.86 ± 0.25	990.05 ± 0.25	986.21 ± 0.25	982.33 ± 0.25	978.4 ± 0.25	974.44 ± 0.25	–
x2 = 0.5501	1000.3 ± 0.24	996.55 ± 0.24	992.74 ± 0.24	988.89 ± 0.24	985.01 ± 0.24	981.09 ± 0.23	977.12 ± 0.23	–
x2 = 0.6001	1004.18 ± 0.21	1000.45 ± 0.21	996.65 ± 0.21	992.81 ± 0.21	988.93 ± 0.21	985.01 ± 0.21	981.05 ± 0.21	–
x2 = 0.6501	1007.83 ± 0.19	1004.09 ± 0.19	1000.3 ± 0.19	996.47 ± 0.19	992.61 ± 0.19	988.7 ± 0.19	984.75 ± 0.19	–
x2 = 0.7	1011.17 ± 0.17	1007.46 ± 0.17	1003.71 ± 0.17	999.92 ± 0.16	996.09 ± 0.16	992.22 ± 0.16	988.3 ± 0.16	–
x2 = 0.7501	1013.81 ± 0.14	1010.2 ± 0.14	1006.54 ± 0.14	1002.84 ± 0.14	999.1 ± 0.14	995.31 ± 0.14	991.48 ± 0.14	–
x2 = 0.8	1014.93 ± 0.12	1011.54 ± 0.12	1008.08 ± 0.12	1004.58 ± 0.11	1001.02 ± 0.11	997.41 ± 0.11	993.74 ± 0.12	–
x2 = 0.84	1014.28 ± 0.1	1011.22 ± 0.1	1008.08 ± 0.1	1004.86 ± 0.1	1001.58 ± 0.09	998.22 ± 0.09	994.79 ± 0.1	–
x2 = 0.88	1011.59 ± 0.1	1009.04 ± 0.09	1006.38 ± 0.09	1003.61 ± 0.08	1000.73 ± 0.08	997.76 ± 0.08	994.67 ± 0.08	–
x2 = 0.92	1007.29 ± 0.09	1005.41 ± 0.09	1003.37 ± 0.08	1001.17 ± 0.07	998.83 ± 0.07	996.33 ± 0.07	993.7 ± 0.07	–
x2 = 0.96	1002.39 ± 0.09	1001.24 ± 0.08	999.86 ± 0.07	998.26 ± 0.07	996.47 ± 0.06	994.49 ± 0.06	992.33 ± 0.06	–
